The values below come from patent US20190388441A1, “NOVEL PRODRUGS OF MIZORIBINE” (KATHOLIEKE UNIVERSITEIT LEUVEN, priority 2017, published 2019).

In series [1] the test system is IL-2 production. As to the kind of experiment: suppression of IL-2 production in anti-CD3 antibody stimulated mice in vivo. On the set-up: species or system Balb/c mice. The following applies: Mus musculus; for inhibition at 65 mg/kg: 65 mpk PO; for inhibition at 40 mg/kg: 40 mpk PO; for inhibition at 55 mg/kg: 55 mpk PO; for inhibition at 50 mg/kg: 50 mpk PO; for inhibition at 25 mg/kg: 25 mpk PO. The protocol:
Mizoribine prodrug-induced suppression of IL-2 production in anti-CD3 antibody stimulated mice in vivo.
Inbreed Balb/c mice, male, 8-10 week old, were pre-treated with Mycophenolate mofetil (MMF), Mizoribine and Mizoribine prodrugs at the different time intervals before anti-mouse CD3 antibody injection IP (1 μg per mouse). The doses of the prodrugs of examples 19, 40 and 48 were equal to Mizoribine on the bases of molecular weight. Four hours after anti-CD3 antibody stimulation, a volume of 100 μl peripheral blood was taken by eye puncture and serum IL-2 was quantified by FACS-beads technology. Briefly, an aliquot of 10 μl of serum was incubated with anti-mouse IL-2 antibody coated microbeads at 4° C. for 30 min. After washing twice with cold PBS, the beads were incubated with biotin-conjugated anti-mouse IL-2 antibody at 4° C. for 30 min. After washing twice with cold PBS, The beads were incubated with PE-conjugated avidin at 4° C. for 30 min. After washing twice with cold PBS, the samples were analyzed by flow cytometry. Results were expressed as mean of 2 mice in each group.

Series [2] relates to Balb/c mice. As to the kind of experiment: subacute toxicity assay. The class given is in vivo. The following applies: Day 0-14, n = 6. As for the experimental part:
Reduction of Toxicity by Combination of Ex19 and MZR Subacute Toxicity Assay
Balb/c mice were treated with MZR at 100 mpk PO or Ex19 at equal molecule dose to MZR from day 0-14.

Series [3] has as its system DBA-1 mice with CIA. As to the kind of experiment: chicken collagen type II induced rheumatoid arthritis (CIA) in DBA-1 mice. In kind it is in vivo. The following applies: monotherapy at given doses, 30 day-treatment. The text has this:
Results of example 67 showing disease score in DBA-1 mice with CIA after a 30 day-treatment with the Mizoribine prodrug of example 19 alone and in combination with MMF or Mizoribine.
Example 67: Synergy of the Prodrug of Example 19 with MMF or Mizoribine in Treatment of DBA-1 Mice with Chicken Collagen Type II Induced Rheumatoid Arthritis (CIA)

Series [4] deals with heart grafts from Balb/c donors in C57BL/6 recipient mice. As to the kind of experiment: heart allograft survival in mice (heterotopic heart transplantation). The class given is in vivo. The protocol: Synergy of Mizoribine Prodrugs with FK506 to Prolong Heart Allograft Survival in Mice
Heterotopic hear transplantation was performed by placing heart grafts from Balb/c donors to the neck of C57BL/6 recipient mice using micro-suture technology, in which the aorta and pulmonary artery of the graft were connected to carotid artery and jugular vein, respectively. The function of grafts was monitored by daily inspection and palpation. Rejection was determined by cessation of graft beating and confirmed by histology.

Series [5] has as its target hlMPDH1 (Homo sapiens, UniProt P20839). The following applies: upper end of the range; cited from earlier work.
The target in series [6] is IMPDH (E. coli) (Escherichia coli, UniProt P0ADG7). The note with it: lower end of the range; cited from earlier work.
Setting [7] is: given 1 hour before anti-CD3, mean of 2 mice, read-out: % inhibition of IL-2, 1 hour post administration.
[8] abbreviates: given 4 hours before anti-CD3, mean of 2 mice, read-out: % inhibition of IL-2, 4 hour post administration.
Where [9] appears, read: given 8 hours before anti-CD3, mean of 2 mice, read-out: % inhibition of IL-2, 8 hour post administration.
The mark [10] stands for this setting: 1 to 8 hours post administration, read-out: inhibition of IL-2, range up to 8 hours post administration.

Read-outs that look alike come from different tables or passages of the source.

Chain of IMPDH (E. coli) (P0ADG7 whole entry): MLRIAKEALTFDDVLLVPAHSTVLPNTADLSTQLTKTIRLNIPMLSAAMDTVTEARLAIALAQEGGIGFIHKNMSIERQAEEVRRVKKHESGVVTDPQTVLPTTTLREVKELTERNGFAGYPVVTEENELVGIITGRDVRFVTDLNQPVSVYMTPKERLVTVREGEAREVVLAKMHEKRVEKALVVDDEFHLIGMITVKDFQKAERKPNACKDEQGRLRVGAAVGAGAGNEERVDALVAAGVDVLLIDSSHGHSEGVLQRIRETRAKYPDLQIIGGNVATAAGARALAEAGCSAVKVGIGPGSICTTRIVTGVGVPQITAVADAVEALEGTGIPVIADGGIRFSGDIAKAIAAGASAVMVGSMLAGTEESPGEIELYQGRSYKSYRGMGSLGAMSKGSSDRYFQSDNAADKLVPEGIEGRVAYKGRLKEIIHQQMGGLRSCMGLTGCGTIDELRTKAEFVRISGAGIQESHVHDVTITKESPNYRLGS
Chain of hlMPDH1 (P20839 whole entry): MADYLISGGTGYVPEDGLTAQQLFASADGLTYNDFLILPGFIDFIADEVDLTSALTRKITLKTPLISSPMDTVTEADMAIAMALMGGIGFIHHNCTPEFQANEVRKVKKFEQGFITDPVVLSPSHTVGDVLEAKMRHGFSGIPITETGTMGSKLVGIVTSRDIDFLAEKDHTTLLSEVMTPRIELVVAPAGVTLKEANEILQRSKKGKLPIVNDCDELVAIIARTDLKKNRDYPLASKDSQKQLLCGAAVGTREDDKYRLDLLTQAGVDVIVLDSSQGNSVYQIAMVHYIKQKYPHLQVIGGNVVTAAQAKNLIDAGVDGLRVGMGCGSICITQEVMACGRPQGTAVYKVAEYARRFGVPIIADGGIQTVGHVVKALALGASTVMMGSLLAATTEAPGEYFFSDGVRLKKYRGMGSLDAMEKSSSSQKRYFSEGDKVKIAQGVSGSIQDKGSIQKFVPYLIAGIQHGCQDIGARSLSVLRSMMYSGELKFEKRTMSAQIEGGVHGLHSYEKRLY

`CC(C)CCOC(=O)C[C@H](NP(=O)(OC[C@H]1O[C@@H](n2cnc(C(N)=O)c2O)[C@H](O)C1O)Oc1ccccc1)C(=O)OCCC(C)C` (stereo partly drawn) [Ex 19, Mizoribine-5′-[phenyl-bis(isoamyl-L-aspartyl)]phosphate]: the inhibition at 65 mg/kg in series [1] (setting [7]) is 14.7%; in series [1] (setting [8]), 18.3%; in series [1] (setting [9]) it was 17.5%; in series [1] (setting [10]), 14 to 18%. Moreover, the “n° sick animals” value in series [2] (Ex19 260 mg/kg PO (equal molecule dose to MZR)) came to 3. In addition, the “% sickness” value in series [2] (Ex19 260 mg/kg PO) is listed as 50%. Besides, the “suppression of disease score” value in series [3] was “didn't show notable suppression of disease score”.

As to `CC(C)(C)C(=O)NC(=O)c1ncn([C@@H]2O[C@H](COC(=O)C(C)(C)C)C(O)[C@H]2O)c1O` (stereo partly drawn) [Ex 40, Mizoribine-5′-N-dipivalate], the “MST (median survival time) ± SD” value worked out at 11 ± 0.6 days in series [4] (83 mpk PO, d 0 to d 14 post transplantation); 11 ± 0.6 days in series [4] (83 mpk PO, d 0 to d 14 post transplantation, listed as Example 40); 11 ± 0.6 days in series [4] (83 mpk PO, d 0 to d 14 post transplantation, listed as example 40). Moreover, the results for the inhibition at 40 mg/kg in series [1] (setting [7]), in series [1] (setting [8]) and in series [1] (setting [9]) were 19.4%, 64.4% and 61.3%, respectively.

Regarding `NC(=O)c1ncn(C2OC(COC(=O)[C@@H](N)CC(=O)OCc3ccccc3)C(O)C2O)c1O` (stereo partly drawn) [Ex 48, Mizoribine-5′-(4-benzyl ester-L-aspartyl) ester], the “MST (median survival time) ± SD” value in series [4] (112 mpk PO, d 0 to d 14 post transplantation) is 11 ± 1.0 days; in series [4] (112 mpk PO, d 0 to d 14 post transplantation, listed as example 48), 11 ± 1.0 days. Further, the inhibition at 55 mg/kg was 77% in series [1] (setting [7]), 32.7% in series [1] (setting [8]), 27.7% in series [1] (setting [9]) and 27.7 to 77% in series [1] (setting [10]).

Turning to `C=CC[C@@H]1/C=C(\C)C[C@H](C)C[C@H](OC)[C@H]2O[C@@](O)(C(=O)C(=O)N3CCCC[C@H]3C(=O)O[C@H](/C(C)=C/[C@@H]3CC[C@@H](O)[C@H](OC)C3)[C@H](C)[C@@H](O)CC1=O)[C@H](C)C[C@@H]2OC` [FK506, tacrolimus], the “MST (median survival time) ± SD” value in series [4] (FK506 4 mpk IM, d 0 to d 14 post transplantation, 4 mg/kg) is 8 ± 1.3 days.

On to `COc1c(C)c2c(c(O)c1C/C=C(\C)CCC(=O)OCCN1CCOCC1)C(=O)OC2` [MMF, Mycophenolate mofetil, reference compound], for which, in series [4] (MMF 100 mpk PO, d 0 to d 14), the “MST (median survival time) ± SD” value was found to be 11 ± 1.2 days. The inhibition at 50 mg/kg amounted to 81.7% in series [1] (given 1 hour before anti-CD3, serum IL-2 4 h after stimulation, mean of 2 mice, read-out: % inhibition of IL-2, 1 hour post administration); 52.3% in series [1] (setting [8]); 3.4% in series [1] (setting [9]). Moreover, in series [3], the “suppression of disease score” value is “didn't show notable suppression of disease score”.

With `NC(=O)c1ncn([C@@H]2O[C@H](CO)[C@@H](O)[C@H]2O)c1O` [Mizoribine], the “MST (median survival time) ± SD” value came to 8 ± 1.2 days in series [4] (MZR 50 mpk PO, d 0 to d 14) and 8 ± 1.2 days in series [4] (MZR 50 mpk PO, d 0 to d 14, listed as MZR). In addition, the inhibition at 25 mg/kg in series [1] (setting [7]) is 55.6%; in series [1] (setting [8]) it was -8.6%; in series [1] (setting [9]), -7.3%. For the same compound, in series [3], the “suppression of disease score” value is given as “didn't show notable suppression of disease score”.

For orientation: Ki means the equilibrium dissociation constant of an inhibitor or competing ligand from its target. For `NC(=O)c1ncn([C@@H]2O[C@H](COP(=O)(O)O)[C@@H](O)[C@H]2O)c1O` [mizoribine-5′-monophosphate], the inhibition constant Ki is 8 nM in series [5] and 0.5 nM in series [6].
